{"source": "ChEMBL document CHEMBL3734721", "about": "(J Med Chem, 2015)", "key": {"[1]": {"test": "Chemical stability of compound in DMSO assessed as compound remaining at 10 mg/ml after 1 day at room temperature", "type": "physicochemical", "conditions": "read-out: Stability"}, "[2]": {"test": "Fraction unbound in rat plasma at 5 uM after 4.5 hrs by LC-MS/MS analysis", "type": "ADME, cell-free"}, "Cytochrome P450 2C9": {"biological_target": "Cytochrome P450 2C9 (Homo sapiens, UniProt P11712)", "sequence (P11712 whole entry)": "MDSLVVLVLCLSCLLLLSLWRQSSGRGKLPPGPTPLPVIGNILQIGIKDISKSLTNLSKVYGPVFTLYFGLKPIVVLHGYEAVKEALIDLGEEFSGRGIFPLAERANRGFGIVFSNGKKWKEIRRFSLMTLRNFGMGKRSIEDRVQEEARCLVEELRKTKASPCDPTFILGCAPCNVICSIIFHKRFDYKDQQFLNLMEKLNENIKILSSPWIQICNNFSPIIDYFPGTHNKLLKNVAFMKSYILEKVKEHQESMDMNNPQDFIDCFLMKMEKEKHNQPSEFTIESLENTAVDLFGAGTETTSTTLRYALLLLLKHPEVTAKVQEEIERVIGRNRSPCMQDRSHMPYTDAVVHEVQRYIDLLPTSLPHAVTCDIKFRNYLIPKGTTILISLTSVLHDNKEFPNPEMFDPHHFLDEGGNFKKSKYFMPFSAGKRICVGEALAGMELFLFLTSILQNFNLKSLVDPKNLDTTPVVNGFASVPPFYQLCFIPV", "test": "Inhibition of human CYP2C9 by LC-MS analysis", "type": "ADME"}, "[3]": {"test": "Cmax in Swiss mouse brain at 5 mg/kg, sc", "type": "ADME, organism-based", "parameters": "dose 5 mg/kg, route subcutaneous"}, "HepG2": {"tested_on": "HepG2", "test": "Cytotoxicity against human HepG2 cells", "type": "cell-based"}, "[4]": {"test": "Chemical stability of compound in buffer at pH 7.4 assessed as compound remaining at 10 mg/ml after 2 days", "type": "physicochemical", "conditions": "read-out: Stability"}, "[5]": {"test": "Fraction unbound in rat brain at 5 uM after 5 hrs by LC-MS/MS analysis", "type": "ADME, tissue-based"}, "Cytochrome P450 2C19": {"biological_target": "Cytochrome P450 2C19 (Homo sapiens, UniProt P33261)", "sequence (P33261 whole entry)": "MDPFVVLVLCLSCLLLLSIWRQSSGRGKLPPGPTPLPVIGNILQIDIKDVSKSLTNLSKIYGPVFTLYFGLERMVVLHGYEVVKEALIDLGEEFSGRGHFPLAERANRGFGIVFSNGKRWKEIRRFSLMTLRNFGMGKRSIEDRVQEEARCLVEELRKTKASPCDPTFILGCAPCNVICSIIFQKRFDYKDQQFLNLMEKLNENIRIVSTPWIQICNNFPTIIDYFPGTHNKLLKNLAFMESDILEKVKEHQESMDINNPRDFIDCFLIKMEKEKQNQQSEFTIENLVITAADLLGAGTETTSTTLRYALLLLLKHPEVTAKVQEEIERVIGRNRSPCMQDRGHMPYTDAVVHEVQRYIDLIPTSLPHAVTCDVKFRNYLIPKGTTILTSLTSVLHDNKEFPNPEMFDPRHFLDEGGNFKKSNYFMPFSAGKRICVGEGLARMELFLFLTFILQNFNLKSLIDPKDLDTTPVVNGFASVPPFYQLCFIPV", "test": "Inhibition of human CYP2C19 by LC-MS analysis", "type": "ADME"}, "[6]": {"biological_target": "T1, 5-hydroxytryptamine receptor 7 (Homo sapiens, UniProt P34969)", "T1 sequence (P34969 whole entry)": "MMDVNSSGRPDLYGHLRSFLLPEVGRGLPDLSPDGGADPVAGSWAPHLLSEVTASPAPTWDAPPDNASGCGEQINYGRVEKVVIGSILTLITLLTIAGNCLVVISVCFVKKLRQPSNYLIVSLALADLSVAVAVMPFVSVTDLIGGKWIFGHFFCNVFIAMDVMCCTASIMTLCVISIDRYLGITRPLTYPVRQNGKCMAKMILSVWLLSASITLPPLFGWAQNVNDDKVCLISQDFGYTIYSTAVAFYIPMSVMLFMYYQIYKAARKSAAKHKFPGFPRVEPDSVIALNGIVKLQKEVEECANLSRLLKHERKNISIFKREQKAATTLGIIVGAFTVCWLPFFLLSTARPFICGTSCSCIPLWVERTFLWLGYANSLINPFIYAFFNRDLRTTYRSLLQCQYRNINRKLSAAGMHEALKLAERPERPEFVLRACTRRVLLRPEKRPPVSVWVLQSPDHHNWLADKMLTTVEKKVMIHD", "test": "Agonist activity at human wild-type 5-HT7 receptor expressed in HEK cells assessed as cAMP by HTRF assay", "type": "functional, cell-based, HEK293"}, "[7]": {"test": "Chemical stability of compound in 0.1N NaOH assessed as compound remaining at 10 mg/ml after 2 days", "type": "physicochemical", "conditions": "read-out: Stability"}, "Cytochrome P450 1A2": {"biological_target": "T2, Cytochrome P450 1A2 (Homo sapiens, UniProt P05177)", "T2 sequence (P05177 whole entry)": "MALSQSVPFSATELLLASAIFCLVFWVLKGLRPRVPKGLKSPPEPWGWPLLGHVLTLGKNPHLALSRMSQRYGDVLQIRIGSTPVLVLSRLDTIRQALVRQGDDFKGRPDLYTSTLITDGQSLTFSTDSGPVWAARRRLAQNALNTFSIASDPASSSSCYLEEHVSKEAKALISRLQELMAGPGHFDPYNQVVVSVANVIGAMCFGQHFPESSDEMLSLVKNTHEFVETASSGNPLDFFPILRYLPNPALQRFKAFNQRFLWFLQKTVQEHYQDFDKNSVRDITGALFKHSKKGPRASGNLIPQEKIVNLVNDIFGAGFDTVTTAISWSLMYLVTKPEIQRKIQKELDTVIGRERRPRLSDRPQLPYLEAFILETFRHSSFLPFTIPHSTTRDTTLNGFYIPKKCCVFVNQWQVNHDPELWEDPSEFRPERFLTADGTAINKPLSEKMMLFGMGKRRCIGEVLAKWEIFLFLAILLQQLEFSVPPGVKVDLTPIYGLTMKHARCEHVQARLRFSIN", "test": "Inhibition of human CYP1A2 by LC-MS analysis", "type": "ADME"}, "[8]": {"biological_target": "T3, 5-hydroxytryptamine receptor 6 (Homo sapiens, UniProt P50406)", "T3 sequence (P50406 whole entry)": "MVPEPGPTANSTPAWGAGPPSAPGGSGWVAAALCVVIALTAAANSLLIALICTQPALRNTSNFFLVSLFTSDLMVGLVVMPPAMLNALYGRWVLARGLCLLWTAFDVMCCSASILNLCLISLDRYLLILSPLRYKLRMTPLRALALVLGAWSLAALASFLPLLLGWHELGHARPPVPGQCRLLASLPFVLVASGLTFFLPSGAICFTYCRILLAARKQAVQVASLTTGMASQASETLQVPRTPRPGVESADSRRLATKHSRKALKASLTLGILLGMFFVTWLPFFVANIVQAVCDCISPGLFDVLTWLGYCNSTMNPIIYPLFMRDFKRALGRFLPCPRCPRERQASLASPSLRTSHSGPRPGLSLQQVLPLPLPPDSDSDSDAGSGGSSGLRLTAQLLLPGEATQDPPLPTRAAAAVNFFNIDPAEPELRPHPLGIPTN", "test": "Agonist activity at human 5-HT6 receptor expressed in 1321N1 cells assessed as cAMP by HTRF assay", "type": "functional, cell-based"}, "[9]": {"test": "Fraction unbound in mouse plasma at 5 uM after 4.5 hrs by LC-MS/MS analysis", "type": "ADME, cell-free"}, "[10]": {"test": "Chemical stability of compound in buffer at pH 7.4 assessed as compound remaining at 10 mg/ml after 1 day", "type": "physicochemical", "conditions": "read-out: Stability"}, "[11]": {"test": "Chemical stability of compound in 0.1N HCL assessed as compound remaining at 10 mg/ml after 1 day", "type": "physicochemical", "conditions": "read-out: Stability"}, "[12]": {"test": "Chemical stability of compound in DMSO assessed as compound remaining at 10 mg/ml after 24 days at room temperature under air", "type": "physicochemical", "conditions": "read-out: Stability"}, "[13]": {"test": "Ratio of drug level in brain to plasma in Swiss mouse at 5 mg/kg, sc", "type": "ADME, organism-based", "conditions": "read-out: BPR"}, "[14]": {"test": "Fraction unbound in human plasma at 5 uM after 4.5 hrs by LC-MS/MS analysis", "type": "ADME, cell-free"}, "human MDR1": {"tested_on": "human MDR1", "test": "Permeability across apical to basolateral in MDCK expressing human MDR1 at 5 uM by LC-MS/MS method", "type": "ADME, cell-based, Canis lupus familiaris", "conditions": "dog, read-out: permeability"}, "[15]": {"test": "Chemical stability of compound in DMSO assessed as compound remaining at 10 mg/ml after 2 days at room temperature", "type": "physicochemical", "conditions": "read-out: Stability"}, "Cytochrome P450 2C8": {"biological_target": "T4, Cytochrome P450 2C8 (Homo sapiens, UniProt P10632)", "T4 sequence (P10632 whole entry)": "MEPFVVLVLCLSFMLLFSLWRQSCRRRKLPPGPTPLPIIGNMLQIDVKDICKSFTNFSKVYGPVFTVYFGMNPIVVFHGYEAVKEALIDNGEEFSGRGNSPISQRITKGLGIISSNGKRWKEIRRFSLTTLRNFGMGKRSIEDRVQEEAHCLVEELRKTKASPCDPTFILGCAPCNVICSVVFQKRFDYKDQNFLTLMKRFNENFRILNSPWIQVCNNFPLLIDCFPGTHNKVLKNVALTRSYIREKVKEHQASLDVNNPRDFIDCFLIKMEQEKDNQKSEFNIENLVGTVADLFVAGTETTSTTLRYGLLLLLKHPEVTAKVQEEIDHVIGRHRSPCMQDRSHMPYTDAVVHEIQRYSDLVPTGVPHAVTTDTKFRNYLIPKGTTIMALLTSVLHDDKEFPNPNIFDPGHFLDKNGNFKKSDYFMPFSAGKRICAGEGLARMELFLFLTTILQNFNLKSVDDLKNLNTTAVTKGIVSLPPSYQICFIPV", "test": "Inhibition of human CYP2C8 by LC-MS analysis", "type": "ADME"}, "[16]": {"test": "Kinetic solubility of compound in phosphate buffer at pH 7.4 for 4 hrs by UPLC/UV analysis", "type": "physicochemical", "conditions": "read-out: Kinetic_solubility"}, "[17]": {"biological_target": "T1, 5-hydroxytryptamine receptor 7", "test": "Antagonist activity at human wild-type 5-HT7 receptor expressed in HEK cells assessed as seretonin-induced cAMP by HTRF assay", "type": "functional, cell-based, HEK293"}, "[18]": {"biological_target": "T3, 5-hydroxytryptamine receptor 6", "test": "Antagonist activity at human 5-HT6 receptor expressed in 1321N1 cells assessed as seretonin-induced cAMP by HTRF assay", "type": "functional, cell-based"}, "[19]": {"test": "Chemical stability of compound in 0.1N NaOH assessed as compound remaining at 10 mg/ml after 1 day", "type": "physicochemical", "conditions": "read-out: Stability"}, "[20]": {"test": "Chemical stability of compound in 0.1N HCL and 0.5% H2O2 assessed as compound remaining at 10 mg/ml after 1 day", "type": "physicochemical", "conditions": "read-out: Stability"}}}
{"smiles": "CC(C)NCC(O)COc1cccc2ccccc12", "note": "(stereo unspecified) [PROPRANOLOL]", "values": [{"measurement": "remaining at 24 h, 10 mg/ml", "setting": "[1]", "value": 100, "unit": "%"}, {"measurement": "fraction unbound at 4.5 h, 5 µM", "setting": "[2]", "value": 0.239}, {"measurement": "IC50", "setting": "Cytochrome P450 2C9", "value": "> 10", "unit": "µM"}, {"measurement": "Cmax", "setting": "[3]", "value": 16, "unit": "µM"}, {"measurement": "EC20", "setting": "HepG2", "value": "> 100", "unit": "µM"}, {"measurement": "remaining at 48 h, 10 mg/ml", "setting": "[4]", "value": 100, "unit": "%"}, {"measurement": "fraction unbound at 5 h, 5 µM", "setting": "[5]", "value": 0.028}, {"measurement": "IC50", "setting": "Cytochrome P450 2C19", "value": "> 10", "unit": "µM"}, {"measurement": "EC50", "setting": "[6]", "value": "> 5.01", "unit": "µM"}, {"measurement": "remaining at 48 h, 10 mg/ml", "setting": "[7]", "value": 100, "unit": "%"}, {"measurement": "IC50", "setting": "Cytochrome P450 1A2", "value": "> 10", "unit": "µM"}, {"measurement": "EC50", "setting": "[8]", "value": "> 5.01", "unit": "µM"}, {"measurement": "fraction unbound at 4.5 h, 5 µM", "setting": "[9]", "value": 0.212}, {"measurement": "remaining at 24 h, 10 mg/ml", "setting": "[10]", "value": 100, "unit": "%"}, {"measurement": "remaining at 24 h, 10 mg/ml", "setting": "[11]", "value": 100, "unit": "%"}, {"measurement": "remaining at 576 h, 10 mg/ml", "setting": "[12]", "value": 100, "unit": "%"}, {"measurement": "Kp", "setting": "[13]", "value": 23}, {"measurement": "fraction unbound at 4.5 h, 5 µM", "setting": "[14]", "value": 0.421}, {"measurement": "Papp A→B at 5 µM", "setting": "human MDR1", "value": 3.5, "unit": "×10⁻⁶ cm/s"}, {"measurement": "remaining at 48 h, 10 mg/ml", "setting": "[15]", "value": 100, "unit": "%"}, {"measurement": "IC50", "setting": "Cytochrome P450 2C8", "value": "> 10", "unit": "µM"}, {"measurement": "solubility kinetic at 4 h", "setting": "[16]", "value": 764, "unit": "µM"}, {"measurement": "IC50", "setting": "[17]", "value": "> 5.01", "unit": "µM"}, {"measurement": "IC50", "setting": "[18]", "value": "> 5.01", "unit": "µM"}, {"measurement": "remaining at 24 h, 10 mg/ml", "setting": "[19]", "value": 100, "unit": "%"}, {"measurement": "remaining at 24 h, 10 mg/ml", "setting": "[20]", "value": 100, "unit": "%"}]}
